Measured values taken from PMC4447944 (The Journal of Biological Chemistry, 2015).

Key:
[1] = molecular target: T1, hDAPK2 (Homo sapiens, UniProt Q9UIK4); test: KINOMEscan; assay type: binding
T1 construct: purchased DiscoverX (KINOMEscan platform)

[2] = molecular target: T2, hRIPK1 (Homo sapiens, UniProt Q13546); test: KINOMEscan; assay type: binding
T2 construct: purchased DiscoverX (KINOMEscan platform)

[3] = molecular target: T3, hMEK4 (Homo sapiens, UniProt P45985); test: KINOMEscan; assay type: binding
T3 construct: purchased DiscoverX
T3 sequence (P45985 whole entry): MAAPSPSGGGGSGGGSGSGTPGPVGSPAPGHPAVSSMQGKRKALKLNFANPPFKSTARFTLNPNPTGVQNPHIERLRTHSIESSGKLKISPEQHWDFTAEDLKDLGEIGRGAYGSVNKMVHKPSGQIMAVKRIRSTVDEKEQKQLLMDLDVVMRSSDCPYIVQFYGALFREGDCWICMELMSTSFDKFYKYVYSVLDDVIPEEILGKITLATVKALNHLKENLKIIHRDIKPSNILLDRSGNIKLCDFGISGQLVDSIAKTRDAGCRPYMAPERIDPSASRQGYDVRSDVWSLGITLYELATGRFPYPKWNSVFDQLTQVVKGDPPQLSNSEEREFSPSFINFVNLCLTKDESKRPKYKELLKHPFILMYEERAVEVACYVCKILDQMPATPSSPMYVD

[4] = molecular target: T4, hS6K1 (Homo sapiens, UniProt P23443); test: KINOMEscan; assay type: binding
T4 construct: purchased DiscoverX (KINOMEscan platform)

[5] = molecular target: T5, hROS1 (Homo sapiens, UniProt P08922); test: KINOMEscan; assay type: binding
T5 construct: purchased DiscoverX (KINOMEscan platform)

[6] = molecular target: T6, hMERTK (Homo sapiens, UniProt Q12866); test: KINOMEscan; assay type: binding
T6 construct: purchased DiscoverX

[7] = molecular target: T7, hULK3 (Homo sapiens, UniProt Q6PHR2); test: KINOMEscan; assay type: binding
T7 construct: purchased DiscoverX

[8] = molecular target: T8, hFLT4 (Homo sapiens, UniProt P35916); test: KINOMEscan; assay type: binding
T8 construct: purchased DiscoverX

[9] = molecular target: T9, hHASPIN (Homo sapiens, UniProt Q8TF76); test: KINOMEscan; assay type: binding
T9 construct: purchased DiscoverX

[10] = molecular target: T10, hZAK (Homo sapiens, UniProt Q9NYL2); test: KINOMEscan; assay type: binding
T10 construct: purchased DiscoverX
T10 sequence (Q9NYL2 whole entry): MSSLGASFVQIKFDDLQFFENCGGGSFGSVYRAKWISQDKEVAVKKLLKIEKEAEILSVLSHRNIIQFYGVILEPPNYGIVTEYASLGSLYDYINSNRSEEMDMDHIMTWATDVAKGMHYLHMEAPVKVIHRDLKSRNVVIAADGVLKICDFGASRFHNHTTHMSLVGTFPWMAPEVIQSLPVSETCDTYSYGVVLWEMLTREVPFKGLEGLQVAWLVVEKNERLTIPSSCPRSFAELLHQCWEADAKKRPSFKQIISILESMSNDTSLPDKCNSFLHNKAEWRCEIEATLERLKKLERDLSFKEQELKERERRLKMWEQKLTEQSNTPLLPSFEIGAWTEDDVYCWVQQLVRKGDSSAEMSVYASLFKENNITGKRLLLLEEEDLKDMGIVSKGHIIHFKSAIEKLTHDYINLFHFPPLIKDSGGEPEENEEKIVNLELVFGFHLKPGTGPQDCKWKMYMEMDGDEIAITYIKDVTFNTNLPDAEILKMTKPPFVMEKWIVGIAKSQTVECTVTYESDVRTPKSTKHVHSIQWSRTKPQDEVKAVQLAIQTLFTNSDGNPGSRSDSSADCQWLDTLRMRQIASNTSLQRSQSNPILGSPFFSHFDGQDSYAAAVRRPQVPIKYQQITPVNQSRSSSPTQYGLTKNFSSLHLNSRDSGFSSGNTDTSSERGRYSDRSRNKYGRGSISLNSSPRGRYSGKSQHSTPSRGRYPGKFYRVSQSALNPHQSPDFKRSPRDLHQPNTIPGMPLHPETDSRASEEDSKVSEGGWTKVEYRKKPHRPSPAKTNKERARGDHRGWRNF

[11] = molecular target: T11, hMAPKAPK2 (Homo sapiens, UniProt P49137); test: KINOMEscan; assay type: binding
T11 construct: purchased DiscoverX

[12] = molecular target: T12, hDYRK1B (Homo sapiens, UniProt Q9Y463); test: KINOMEscan; assay type: binding; settings: read-out: Inhibition at the 20 μM dose
T12 construct: purchased DiscoverX

[13] = molecular target: hD1 (Homo sapiens, UniProt P21728); test: cAMP 1% DMSO Potentiation (Eurofins-CEREP); settings: @ 10 μM
[14] = molecular target: T13, hWNK1 (Homo sapiens, UniProt Q9H4A3); test: KINOMEscan; assay type: binding
T13 construct: purchased DiscoverX

[15] = molecular target: T14, hRET (Homo sapiens, UniProt P07949); test: KINOMEscan; assay type: binding
T14 construct: purchased DiscoverX (KINOMEscan platform)

[16] = molecular target: T15, hALK(C1156Y) (Homo sapiens, UniProt Q9UM73, C1156Y); test: KINOMEscan; assay type: binding
T15 construct: purchased DiscoverX
T15 sequence (Q9UM73 19-1620 C1156Y): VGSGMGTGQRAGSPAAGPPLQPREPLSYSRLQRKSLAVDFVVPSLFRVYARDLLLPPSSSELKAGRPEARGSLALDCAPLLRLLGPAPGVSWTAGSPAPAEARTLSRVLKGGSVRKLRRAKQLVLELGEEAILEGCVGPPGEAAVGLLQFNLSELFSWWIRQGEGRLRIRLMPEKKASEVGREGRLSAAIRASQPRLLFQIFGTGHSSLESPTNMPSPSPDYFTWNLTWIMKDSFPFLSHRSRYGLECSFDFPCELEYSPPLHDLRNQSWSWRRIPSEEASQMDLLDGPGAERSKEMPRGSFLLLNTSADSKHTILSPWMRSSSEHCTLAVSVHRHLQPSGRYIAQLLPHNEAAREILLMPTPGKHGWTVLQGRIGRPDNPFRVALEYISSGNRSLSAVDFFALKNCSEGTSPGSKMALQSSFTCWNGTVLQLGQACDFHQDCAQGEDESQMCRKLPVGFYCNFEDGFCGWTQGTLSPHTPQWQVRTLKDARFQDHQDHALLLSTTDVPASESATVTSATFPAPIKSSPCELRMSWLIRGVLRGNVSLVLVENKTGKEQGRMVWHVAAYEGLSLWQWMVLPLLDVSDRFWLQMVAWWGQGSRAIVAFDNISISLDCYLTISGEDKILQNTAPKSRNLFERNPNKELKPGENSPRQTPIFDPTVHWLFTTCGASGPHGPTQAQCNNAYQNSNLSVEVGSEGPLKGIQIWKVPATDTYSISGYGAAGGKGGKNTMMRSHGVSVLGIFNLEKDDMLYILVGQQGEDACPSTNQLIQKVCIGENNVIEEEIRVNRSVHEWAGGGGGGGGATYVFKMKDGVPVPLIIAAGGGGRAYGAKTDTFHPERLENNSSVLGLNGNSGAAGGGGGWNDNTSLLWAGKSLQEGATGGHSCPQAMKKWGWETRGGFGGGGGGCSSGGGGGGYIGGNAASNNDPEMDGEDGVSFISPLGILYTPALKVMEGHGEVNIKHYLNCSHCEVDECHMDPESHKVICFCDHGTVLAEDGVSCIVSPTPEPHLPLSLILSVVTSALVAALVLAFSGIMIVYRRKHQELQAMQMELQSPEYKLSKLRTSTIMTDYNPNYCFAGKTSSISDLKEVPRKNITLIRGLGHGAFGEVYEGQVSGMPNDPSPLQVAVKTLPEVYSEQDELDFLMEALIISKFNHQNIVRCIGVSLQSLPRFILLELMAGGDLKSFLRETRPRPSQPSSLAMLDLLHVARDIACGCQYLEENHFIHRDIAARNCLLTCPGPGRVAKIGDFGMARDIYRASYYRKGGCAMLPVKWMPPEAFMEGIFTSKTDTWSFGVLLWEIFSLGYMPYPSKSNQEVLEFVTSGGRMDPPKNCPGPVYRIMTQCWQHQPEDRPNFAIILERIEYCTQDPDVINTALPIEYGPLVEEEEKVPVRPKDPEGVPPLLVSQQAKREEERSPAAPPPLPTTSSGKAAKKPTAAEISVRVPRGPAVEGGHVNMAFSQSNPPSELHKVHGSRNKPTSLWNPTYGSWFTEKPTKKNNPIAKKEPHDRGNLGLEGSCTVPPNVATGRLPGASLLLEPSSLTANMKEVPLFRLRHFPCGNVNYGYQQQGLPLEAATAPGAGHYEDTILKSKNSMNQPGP

[17] = molecular target: T16, hASK2 (Homo sapiens, UniProt O95382); test: KINOMEscan; assay type: binding
T16 construct: purchased DiscoverX

[18] = molecular target: T17, hAURKB (Homo sapiens, UniProt Q96GD4); test: KINOMEscan; assay type: binding
T17 construct: purchased DiscoverX

[19] = molecular target: T18, hBRAF (Homo sapiens, UniProt P15056); test: KINOMEscan; assay type: binding
T18 construct: purchased DiscoverX

[20] = molecular target: T19, hULK1 (Homo sapiens, UniProt O75385); test: KINOMEscan; assay type: binding
T19 construct: purchased DiscoverX

[21] = molecular target: T20, hROCK1 (Homo sapiens, UniProt Q13464); test: KINOMEscan; assay type: binding
T20 construct: purchased DiscoverX (KINOMEscan platform)

[22] = molecular target: T21, hTRβ1 (Homo sapiens, UniProt P10828); test: Nuclear hormone receptor assay (Eurofins-CEREP); settings: read-out: Relative IC50
T21 construct: Eurofins-CEREP
T21 sequence (P10828 whole entry): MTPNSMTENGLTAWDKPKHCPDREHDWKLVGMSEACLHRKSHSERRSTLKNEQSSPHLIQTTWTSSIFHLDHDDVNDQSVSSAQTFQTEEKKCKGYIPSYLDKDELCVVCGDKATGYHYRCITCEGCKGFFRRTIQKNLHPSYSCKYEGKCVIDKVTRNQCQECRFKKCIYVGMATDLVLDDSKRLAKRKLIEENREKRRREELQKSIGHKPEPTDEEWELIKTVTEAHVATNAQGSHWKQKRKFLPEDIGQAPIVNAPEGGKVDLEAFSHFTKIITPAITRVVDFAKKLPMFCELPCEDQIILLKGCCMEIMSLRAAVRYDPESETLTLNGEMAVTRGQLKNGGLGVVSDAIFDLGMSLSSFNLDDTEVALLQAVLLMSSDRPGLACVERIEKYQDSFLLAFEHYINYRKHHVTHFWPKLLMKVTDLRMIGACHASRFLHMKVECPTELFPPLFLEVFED

[23] = molecular target: T22, hVEGFR2 (Homo sapiens, UniProt P35968); test: KINOMEscan; assay type: binding
T22 construct: purchased DiscoverX

[24] = molecular target: T23, hEGFR(L747-E749del, A750P) (Homo sapiens, UniProt P00533, A750P/DEL747-749); test: KINOMEscan; assay type: binding
T23 construct: purchased DiscoverX
T23 sequence (P00533 with tags, fused parts or gaps DEL747-749/A750P): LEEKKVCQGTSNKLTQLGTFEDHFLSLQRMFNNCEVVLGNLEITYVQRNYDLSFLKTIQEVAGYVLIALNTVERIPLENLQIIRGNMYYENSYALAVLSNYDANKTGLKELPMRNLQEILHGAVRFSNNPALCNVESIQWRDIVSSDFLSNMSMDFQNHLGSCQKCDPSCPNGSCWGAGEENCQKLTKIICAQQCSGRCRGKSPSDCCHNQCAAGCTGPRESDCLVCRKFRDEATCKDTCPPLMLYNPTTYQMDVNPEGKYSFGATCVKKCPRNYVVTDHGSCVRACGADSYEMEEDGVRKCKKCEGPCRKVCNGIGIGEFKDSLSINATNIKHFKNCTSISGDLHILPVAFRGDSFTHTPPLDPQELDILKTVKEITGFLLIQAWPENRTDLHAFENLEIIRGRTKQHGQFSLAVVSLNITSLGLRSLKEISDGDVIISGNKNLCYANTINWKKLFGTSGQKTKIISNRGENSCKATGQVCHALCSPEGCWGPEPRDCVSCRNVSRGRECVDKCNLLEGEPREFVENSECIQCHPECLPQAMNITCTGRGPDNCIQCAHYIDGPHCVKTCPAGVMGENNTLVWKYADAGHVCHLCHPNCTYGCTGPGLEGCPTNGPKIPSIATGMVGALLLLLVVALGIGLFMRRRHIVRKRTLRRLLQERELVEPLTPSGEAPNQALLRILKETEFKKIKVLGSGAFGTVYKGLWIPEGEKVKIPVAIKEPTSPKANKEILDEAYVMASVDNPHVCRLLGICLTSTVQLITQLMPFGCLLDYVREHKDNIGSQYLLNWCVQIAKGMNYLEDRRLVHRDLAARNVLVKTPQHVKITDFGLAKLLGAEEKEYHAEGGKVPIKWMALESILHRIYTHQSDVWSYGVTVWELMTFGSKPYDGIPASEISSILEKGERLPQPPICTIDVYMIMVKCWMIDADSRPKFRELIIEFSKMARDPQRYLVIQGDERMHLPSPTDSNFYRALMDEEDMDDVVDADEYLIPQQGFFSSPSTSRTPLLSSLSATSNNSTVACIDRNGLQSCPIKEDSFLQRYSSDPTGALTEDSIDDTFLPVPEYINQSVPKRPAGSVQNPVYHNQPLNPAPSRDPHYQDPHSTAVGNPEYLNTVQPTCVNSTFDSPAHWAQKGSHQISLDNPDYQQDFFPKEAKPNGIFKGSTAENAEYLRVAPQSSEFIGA

[25] = molecular target: T24, hTBK1 (Homo sapiens, UniProt Q9UHD2); test: KINOMEscan; assay type: binding
T24 construct: purchased DiscoverX

[26] = molecular target: T25, hVDR (Homo sapiens, UniProt P11473); test: Nuclear hormone receptor assay (Eurofins-CEREP); settings: read-out: Relative IC50
T25 construct: Eurofins-CEREP

[27] = molecular target: T26, hCSK (Homo sapiens, UniProt P41240); test: KINOMEscan; assay type: binding
T26 construct: purchased DiscoverX (KINOMEscan platform)

[28] = molecular target: T27, hALK(L1196M) (Homo sapiens, UniProt Q9UM73, L1196M); test: KINOMEscan; assay type: binding
T27 construct: purchased DiscoverX
T27 sequence (Q9UM73 19-1620 L1196M): as the sequence (Q9UM73 19-1620 C1156Y) above, with Y1138C, L1178M counted along it

[29] = molecular target: hH1 (Homo sapiens, UniProt P35367); test: Ca Mobilization Potentiation (Eurofins-CEREP); settings: @ 10 μM
[30] = molecular target: T28, hDLK (Homo sapiens, UniProt Q12852); test: KINOMEscan; assay type: binding
T28 construct: purchased DiscoverX (KINOMEscan platform)

[31] = molecular target: T29, hFLT3(D835Y) (Homo sapiens, UniProt P36888, D835Y); test: KINOMEscan; assay type: binding
T29 construct: purchased DiscoverX

[32] = molecular target: T30, hADRα1A (Homo sapiens, UniProt P35348); test: Calcium Mobilization Potentiation (Eurofins-CEREP); settings: @ 10 μM
T30 sequence (P35348 1-466): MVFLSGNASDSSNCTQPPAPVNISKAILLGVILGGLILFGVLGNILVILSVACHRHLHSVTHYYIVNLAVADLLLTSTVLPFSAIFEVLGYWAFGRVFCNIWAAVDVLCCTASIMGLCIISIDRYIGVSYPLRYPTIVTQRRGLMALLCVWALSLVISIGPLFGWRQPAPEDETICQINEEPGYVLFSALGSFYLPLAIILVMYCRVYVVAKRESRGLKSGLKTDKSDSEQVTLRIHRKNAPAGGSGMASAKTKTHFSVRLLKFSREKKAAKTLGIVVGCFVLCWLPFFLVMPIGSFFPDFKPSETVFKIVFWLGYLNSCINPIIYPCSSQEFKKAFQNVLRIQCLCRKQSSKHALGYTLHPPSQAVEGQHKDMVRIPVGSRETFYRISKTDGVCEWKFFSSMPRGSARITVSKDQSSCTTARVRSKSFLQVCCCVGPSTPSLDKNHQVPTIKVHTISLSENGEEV

[33] = molecular target: T31, hTNIK (Homo sapiens, UniProt Q9UKE5); test: KINOMEscan; assay type: binding
T31 construct: purchased DiscoverX

[34] = molecular target: T32, hMET(M1250T) (Homo sapiens, UniProt P08581, M1250T); test: KINOMEscan; assay type: binding
T32 construct: purchased DiscoverX

[35] = molecular target: T33, hTNK2 (Homo sapiens, UniProt Q07912); test: KINOMEscan; assay type: binding
T33 construct: purchased DiscoverX

[36] = molecular target: T34, hTLK1 (Homo sapiens, UniProt Q9UKI8); test: KINOMEscan; assay type: binding
T34 construct: purchased DiscoverX

T1 sequence (Q9UIK4 whole entry): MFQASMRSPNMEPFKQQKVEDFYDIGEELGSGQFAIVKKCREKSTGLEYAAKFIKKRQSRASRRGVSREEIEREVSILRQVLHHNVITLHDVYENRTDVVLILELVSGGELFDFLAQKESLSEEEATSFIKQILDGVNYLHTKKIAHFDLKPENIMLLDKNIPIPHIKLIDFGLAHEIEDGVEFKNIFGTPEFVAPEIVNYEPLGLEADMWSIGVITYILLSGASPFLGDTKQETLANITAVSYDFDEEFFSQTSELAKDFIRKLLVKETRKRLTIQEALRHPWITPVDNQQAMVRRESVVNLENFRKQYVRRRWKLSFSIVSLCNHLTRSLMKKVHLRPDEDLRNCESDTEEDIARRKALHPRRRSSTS

Structure (SMILES): Cc1cn(CCN2CCN(c3ccccc3-c3cc(C#N)cc(C(=O)NCCCN4CCCC4)c3)CC2)c2ccccc12 [LLY-507, 3-cyano-5-{2-[4-[2-(3-methylindol-1-yl)ethyl]piperazin-1-yl]-phenyl}-N-[(3-pyrrolidin-1-yl)propyl]benzamide]
- IC50 [1]: > 20 µM
- IC50 [2]: > 20 µM
- IC50 [3]: > 20 µM
- IC50 [4]: > 20 µM
- IC50 [5]: > 20 µM
- IC50 [6]: > 20 µM
- IC50 [7]: > 20 µM
- IC50 [8]: > 20 µM
- IC50 [9]: > 20 µM
- IC50 [10]: > 20 µM
- IC50 [11]: > 20 µM
- inhibition at 20 µM [12]: < 50%
- % Effect, Potentiation [13]: -19.4%
- IC50 [14]: > 20 µM
- IC50 [15]: > 20 µM
- IC50 [16]: > 20 µM
- IC50 [17]: > 20 µM
- IC50 [18]: > 20 µM
- IC50 [19]: > 20 µM
- IC50 [20]: > 20 µM
- IC50 [21]: > 20 µM
- IC50 [22]: > 10 µM
- IC50 [23]: > 20 µM
- IC50 [24]: > 20 µM
- IC50 [25]: > 20 µM
- IC50 [26]: > 10 µM
- IC50 [27]: > 20 µM
- IC50 [28]: > 20 µM
- % Effect, Potentiation [29]: -8.5%
- IC50 [30]: > 20 µM
- IC50 [31]: > 20 µM
- % Effect, Potentiation [32]: -7.9%
- IC50 [33]: > 20 µM
- IC50 [34]: > 20 µM
- IC50 [35]: > 20 µM
- IC50 [36]: > 20 µM
